Data set [1] has as its system BT-474 breast cancer cell line. Put plainly: In vitro cytotoxicity, BT-474. The class given is cell-based.
The test system of data set [2] is MDA-MB-231 breast cancer cell line. Description: In vitro cytotoxicity, MDA-MB-231. Type of data set: cell-based.
The test system of the next data set is U-118 glioblastoma cells. Put plainly: Cell proliferation assay ([3H]-thymidine incorporation), U-118. Type of data set: cell-based. The settings on record: read-out: IC50, effect on cell proliferation. For orientation: Uptake of a labelled nucleoside into DNA is a usual measure of proliferation.
Data set [3] has as its system HCC1954 breast cancer cell line. Put plainly: In vitro cytotoxicity, HCC1954. The class given is cell-based.
Data set [4] concerns MDA-MB-468 breast cancer cell line. Description: In vitro cytotoxicity, MDA-MB-468. The class given is cell-based.
Data set [5] can be described thus: Tissue distribution and pharmacokinetics after i.v. bolus (AUC0-4). The class given is in vivo, mice. The settings on record: equivalent to 5 mg/kg of Taxol. On the procedure:
The unconjugated anticancer drug and the conjugates were injected intra-veinously (i.v.) in mice as a bolus. Tissues were collected at different times (0.25, 0.5, 1 and 4 hrs) and homogenized. […] Radioactivity associated with the tissues was therefore quantified. The area under the curve (AUC0-4) was estimated using the Prism software and was plotted for the different tissues (FIG. 10).

The conditions of data set [6]: comparator products; data based on rat GLP toxicity programs; cited from earlier work.
For data set [7], the system named is RBE4 endothelial cells from rat brain. Description: Cell proliferation assay, RBE4. The settings on record: read-out: IC50, effect on cell proliferation. Type of data set: cell-based.
Another data set concerns the target P-gp (human MDR1) (Homo sapiens, UniProt P08183). Put plainly: Accumulation in MDCK-MDR1 cells with or without cyclosporin A (P-gp substrate test). The method, then: In order to determine whether the conjugates of the present invention were P-gp substrates or not, MDCK cells were stably transfected with human MDR1 (MDCK-MDR1) and were subsequently incubated with unconjugated-anticancer drug or with the conjugates of the present invention. […] After the incubation, cells were washed and accumulation of radioactivity inside the cells or intracellular fluorescence was quantified. The increased in the accumulation of these drugs is expressed in term of x-fold compared to their respective control measured in the absence of CsA. Thus, the control value for each drug was set to 1-fold.

Data set [8] can be described thus: Preliminary comparative toxicity in beagle dogs.
The subject of data set [9] is SK-HEP-1 hepatocarcinoma cells. Put plainly: In vitro cytotoxicity, SK-HEP-1. The class given is cell-based, human.
Data set [10] relates to NCI-H460 subcutaneous tumor. Description: Subcutaneous NCI-H460 tumor growth. Type of data set: in vivo, mice. The settings on record: i.v. On the procedure:
Briefly, mice received a subcutaneous injection of 2.5×10^6 human U87 glioma cells or NCI-H460 cells. […] Treatments were then administered twice a week until animals were sacrificed. Mice were monitored every day for clinical symptoms and weight loss. Tumor volume was estimated with a kaliper and the following equation (tumor volume=π/2×(length (mm)×width^2 (mm)).
In the first subcutaneous tumor growth study, NCI-H460 cells were implanted in mice right flank (FIG. 22A).

Data set [11] deals with Calu-3 lung carcinoma cells. Put plainly: Cell proliferation assay, Calu-3. Type of data set: cell-based. The conditions noted are these: Homo sapiens, read-out: IC50, effect on cell proliferation.
The test system of the next data set is NCI-H460 cell-cycle. Put plainly: NCI-H460 cell cycle measured by FACS. Type of data set: cell-based. The conditions noted are these: NCI-H460, 24 hrs; Taxol 100 nM, TxlAn2 conjugate 30 nM. (In flow cytometry, cells or beads pass a laser one at a time.)
The subject of data set [12] is NCI-H460 lung carcinoma cells. Put plainly: Cell proliferation assay ([3H]-thymidine incorporation), NCI-H460. The class given is cell-based. The settings on record: for IC50: Homo sapiens.
Data set [13] concerns A549 lung carcinoma cells. Put plainly: Cell proliferation assay ([3H]-thymidine incorporation), A549. Type of data set: cell-based. The settings on record: Homo sapiens, read-out: IC50, effect on cell proliferation. The method, then:
For the in vitro cell proliferation assay, between 2.5 and 5×10^4 of U87 or A549 cells were seeded in a 24 well tissue culture microplate in a final volume of 1 ml of medium with 10% serum and incubated for 24 hours at 37° C. and 5% CO2. The medium was then replaced with serum-free medium and incubated overnight. The next morning the drug was freshly dissolved in dimethyl sulfoxide (DMSO) and the medium was replaced with complete medium containing the drug at different concentrations in triplicates. The final concentration of DMSO was 0.1%. The control used is a microplate well with cells and without drug. The cells were incubated for 48 to 72 hrs at 37° C. and 5% CO2. After the incubation, the medium was changed and replaced with 1 ml of complete medium containing [^3H]-thymidine (1 μCi/assay). The plate was incubated at 37° C. and 5% CO2 for 4 hrs. The medium was removed and the cells washed with PBS heated at 37° C. The cells were fixed with a mix of ethanol:acetic acid (3;1), then washed with water and precipitated 3 times with 10% of ice-cold TCA (trichloroacetic acid). […] The contents of each well was then transferred in a scintillation vial with 10 ml of scintillation cocktail and the activity was measured in CPM (count per minute) on a liquid scintillation counter Tri-Carb from Packard. […]

In another data set the test system is U-87 glioblastoma cells. Put plainly: Cell proliferation assay ([3H]-thymidine incorporation), U-87. The conditions noted are these: for IC50: Homo sapiens. The class given is cell-based, human. The method, then:
For the in vitro cell proliferation assay, between 2.5 and 5×10^4 of U87 or A549 cells were seeded in a 24 well tissue culture microplate in a final volume of 1 ml of medium with 10% serum and incubated for 24 hours at 37° C. and 5% CO2. The medium was then replaced with serum-free medium and incubated overnight. The next morning the drug was freshly dissolved in dimethyl sulfoxide (DMSO) and the medium was replaced with complete medium containing the drug at different concentrations in triplicates. The final concentration of DMSO was 0.1%. The control used is a microplate well with cells and without drug. The cells were incubated for 48 to 72 hrs at 37° C. and 5% CO2. After the incubation, the medium was changed and replaced with 1 ml of complete medium containing [^3H]-thymidine (1 μCi/assay). The plate was incubated at 37° C. and 5% CO2 for 4 hrs. The medium was removed and the cells washed with PBS heated at 37° C. The cells were fixed with a mix of ethanol:acetic acid (3;1), then washed with water and precipitated 3 times with 10% of ice-cold TCA (trichloroacetic acid). Finally 500 μl of PCA (perchloric acid) were added to the wells and the microplates were heated for 30 min at 65° C. and 30 min at 75° C. The contents of each well was then transferred in a scintillation vial with 10 ml of scintillation cocktail and the activity was measured in CPM (count per minute) on a liquid scintillation counter Tri-Carb from Packard.
The anti-proliferatice activity of the conjugate against cancer cells in vitro was further assessed.

For a further data set, the target named is T1, LRP (Mus musculus, UniProt Q91ZX7).
T1 construct: endogenous in cells; host or cells: MEF-1 fibroblasts (LRP-positive), with PEA-13 fibroblasts (LRP-negative) as subtraction control
Description: [125I]-RAP uptake in MEF-1 (LRP+) and PEA-13 (LRP-) fibroblasts. The class given is cell-based. The method, then: The LRP-dependent accumulation of [^125I]-RAP was calculated by substracted the results for the uptake obtained with PEA-13 cells from the results obtained with MEF-1;

Data set [14] in a line: In situ mouse brain perfusion. The settings on record: 5 min perfusion, [125I]-labelled, FIG. 7.
Description: (§1) Briefly, the right common carotid of ketamine/xylazine (140/8 mg/kg i.p.) anesthetized mice was exposed and ligated at the level of the bifurcation of the common carotid, rostral to the occipital artery. The common carotid was then catheterized rostrally with polyethylene tubing filled with heparin (25 U/ml) and mounted on a 26-gauge needle. […] Prior to the perfusion, the contralateral blood flow contribution was eliminated by severing heart ventricles. […] Mice were then decapitated to terminate perfusion and the right hemisphere was isolated on ice before being subjected to capillary depletion.
(§2) After perfusion, the brain was further perfused for 60 sec with Ringer solution to wash the excess of radiolabeled molecules and then the right hemisphere was isolated on ice before being subjected to capillary depletion.
The conditions of data set [15]: mouse, in vivo.
Description: as §1, §2
Setting [16] is: various aprotinin concentrations.

Like-named read-outs stand apart in the source and are kept apart here.

T1 sequence (Q91ZX7 20-4545): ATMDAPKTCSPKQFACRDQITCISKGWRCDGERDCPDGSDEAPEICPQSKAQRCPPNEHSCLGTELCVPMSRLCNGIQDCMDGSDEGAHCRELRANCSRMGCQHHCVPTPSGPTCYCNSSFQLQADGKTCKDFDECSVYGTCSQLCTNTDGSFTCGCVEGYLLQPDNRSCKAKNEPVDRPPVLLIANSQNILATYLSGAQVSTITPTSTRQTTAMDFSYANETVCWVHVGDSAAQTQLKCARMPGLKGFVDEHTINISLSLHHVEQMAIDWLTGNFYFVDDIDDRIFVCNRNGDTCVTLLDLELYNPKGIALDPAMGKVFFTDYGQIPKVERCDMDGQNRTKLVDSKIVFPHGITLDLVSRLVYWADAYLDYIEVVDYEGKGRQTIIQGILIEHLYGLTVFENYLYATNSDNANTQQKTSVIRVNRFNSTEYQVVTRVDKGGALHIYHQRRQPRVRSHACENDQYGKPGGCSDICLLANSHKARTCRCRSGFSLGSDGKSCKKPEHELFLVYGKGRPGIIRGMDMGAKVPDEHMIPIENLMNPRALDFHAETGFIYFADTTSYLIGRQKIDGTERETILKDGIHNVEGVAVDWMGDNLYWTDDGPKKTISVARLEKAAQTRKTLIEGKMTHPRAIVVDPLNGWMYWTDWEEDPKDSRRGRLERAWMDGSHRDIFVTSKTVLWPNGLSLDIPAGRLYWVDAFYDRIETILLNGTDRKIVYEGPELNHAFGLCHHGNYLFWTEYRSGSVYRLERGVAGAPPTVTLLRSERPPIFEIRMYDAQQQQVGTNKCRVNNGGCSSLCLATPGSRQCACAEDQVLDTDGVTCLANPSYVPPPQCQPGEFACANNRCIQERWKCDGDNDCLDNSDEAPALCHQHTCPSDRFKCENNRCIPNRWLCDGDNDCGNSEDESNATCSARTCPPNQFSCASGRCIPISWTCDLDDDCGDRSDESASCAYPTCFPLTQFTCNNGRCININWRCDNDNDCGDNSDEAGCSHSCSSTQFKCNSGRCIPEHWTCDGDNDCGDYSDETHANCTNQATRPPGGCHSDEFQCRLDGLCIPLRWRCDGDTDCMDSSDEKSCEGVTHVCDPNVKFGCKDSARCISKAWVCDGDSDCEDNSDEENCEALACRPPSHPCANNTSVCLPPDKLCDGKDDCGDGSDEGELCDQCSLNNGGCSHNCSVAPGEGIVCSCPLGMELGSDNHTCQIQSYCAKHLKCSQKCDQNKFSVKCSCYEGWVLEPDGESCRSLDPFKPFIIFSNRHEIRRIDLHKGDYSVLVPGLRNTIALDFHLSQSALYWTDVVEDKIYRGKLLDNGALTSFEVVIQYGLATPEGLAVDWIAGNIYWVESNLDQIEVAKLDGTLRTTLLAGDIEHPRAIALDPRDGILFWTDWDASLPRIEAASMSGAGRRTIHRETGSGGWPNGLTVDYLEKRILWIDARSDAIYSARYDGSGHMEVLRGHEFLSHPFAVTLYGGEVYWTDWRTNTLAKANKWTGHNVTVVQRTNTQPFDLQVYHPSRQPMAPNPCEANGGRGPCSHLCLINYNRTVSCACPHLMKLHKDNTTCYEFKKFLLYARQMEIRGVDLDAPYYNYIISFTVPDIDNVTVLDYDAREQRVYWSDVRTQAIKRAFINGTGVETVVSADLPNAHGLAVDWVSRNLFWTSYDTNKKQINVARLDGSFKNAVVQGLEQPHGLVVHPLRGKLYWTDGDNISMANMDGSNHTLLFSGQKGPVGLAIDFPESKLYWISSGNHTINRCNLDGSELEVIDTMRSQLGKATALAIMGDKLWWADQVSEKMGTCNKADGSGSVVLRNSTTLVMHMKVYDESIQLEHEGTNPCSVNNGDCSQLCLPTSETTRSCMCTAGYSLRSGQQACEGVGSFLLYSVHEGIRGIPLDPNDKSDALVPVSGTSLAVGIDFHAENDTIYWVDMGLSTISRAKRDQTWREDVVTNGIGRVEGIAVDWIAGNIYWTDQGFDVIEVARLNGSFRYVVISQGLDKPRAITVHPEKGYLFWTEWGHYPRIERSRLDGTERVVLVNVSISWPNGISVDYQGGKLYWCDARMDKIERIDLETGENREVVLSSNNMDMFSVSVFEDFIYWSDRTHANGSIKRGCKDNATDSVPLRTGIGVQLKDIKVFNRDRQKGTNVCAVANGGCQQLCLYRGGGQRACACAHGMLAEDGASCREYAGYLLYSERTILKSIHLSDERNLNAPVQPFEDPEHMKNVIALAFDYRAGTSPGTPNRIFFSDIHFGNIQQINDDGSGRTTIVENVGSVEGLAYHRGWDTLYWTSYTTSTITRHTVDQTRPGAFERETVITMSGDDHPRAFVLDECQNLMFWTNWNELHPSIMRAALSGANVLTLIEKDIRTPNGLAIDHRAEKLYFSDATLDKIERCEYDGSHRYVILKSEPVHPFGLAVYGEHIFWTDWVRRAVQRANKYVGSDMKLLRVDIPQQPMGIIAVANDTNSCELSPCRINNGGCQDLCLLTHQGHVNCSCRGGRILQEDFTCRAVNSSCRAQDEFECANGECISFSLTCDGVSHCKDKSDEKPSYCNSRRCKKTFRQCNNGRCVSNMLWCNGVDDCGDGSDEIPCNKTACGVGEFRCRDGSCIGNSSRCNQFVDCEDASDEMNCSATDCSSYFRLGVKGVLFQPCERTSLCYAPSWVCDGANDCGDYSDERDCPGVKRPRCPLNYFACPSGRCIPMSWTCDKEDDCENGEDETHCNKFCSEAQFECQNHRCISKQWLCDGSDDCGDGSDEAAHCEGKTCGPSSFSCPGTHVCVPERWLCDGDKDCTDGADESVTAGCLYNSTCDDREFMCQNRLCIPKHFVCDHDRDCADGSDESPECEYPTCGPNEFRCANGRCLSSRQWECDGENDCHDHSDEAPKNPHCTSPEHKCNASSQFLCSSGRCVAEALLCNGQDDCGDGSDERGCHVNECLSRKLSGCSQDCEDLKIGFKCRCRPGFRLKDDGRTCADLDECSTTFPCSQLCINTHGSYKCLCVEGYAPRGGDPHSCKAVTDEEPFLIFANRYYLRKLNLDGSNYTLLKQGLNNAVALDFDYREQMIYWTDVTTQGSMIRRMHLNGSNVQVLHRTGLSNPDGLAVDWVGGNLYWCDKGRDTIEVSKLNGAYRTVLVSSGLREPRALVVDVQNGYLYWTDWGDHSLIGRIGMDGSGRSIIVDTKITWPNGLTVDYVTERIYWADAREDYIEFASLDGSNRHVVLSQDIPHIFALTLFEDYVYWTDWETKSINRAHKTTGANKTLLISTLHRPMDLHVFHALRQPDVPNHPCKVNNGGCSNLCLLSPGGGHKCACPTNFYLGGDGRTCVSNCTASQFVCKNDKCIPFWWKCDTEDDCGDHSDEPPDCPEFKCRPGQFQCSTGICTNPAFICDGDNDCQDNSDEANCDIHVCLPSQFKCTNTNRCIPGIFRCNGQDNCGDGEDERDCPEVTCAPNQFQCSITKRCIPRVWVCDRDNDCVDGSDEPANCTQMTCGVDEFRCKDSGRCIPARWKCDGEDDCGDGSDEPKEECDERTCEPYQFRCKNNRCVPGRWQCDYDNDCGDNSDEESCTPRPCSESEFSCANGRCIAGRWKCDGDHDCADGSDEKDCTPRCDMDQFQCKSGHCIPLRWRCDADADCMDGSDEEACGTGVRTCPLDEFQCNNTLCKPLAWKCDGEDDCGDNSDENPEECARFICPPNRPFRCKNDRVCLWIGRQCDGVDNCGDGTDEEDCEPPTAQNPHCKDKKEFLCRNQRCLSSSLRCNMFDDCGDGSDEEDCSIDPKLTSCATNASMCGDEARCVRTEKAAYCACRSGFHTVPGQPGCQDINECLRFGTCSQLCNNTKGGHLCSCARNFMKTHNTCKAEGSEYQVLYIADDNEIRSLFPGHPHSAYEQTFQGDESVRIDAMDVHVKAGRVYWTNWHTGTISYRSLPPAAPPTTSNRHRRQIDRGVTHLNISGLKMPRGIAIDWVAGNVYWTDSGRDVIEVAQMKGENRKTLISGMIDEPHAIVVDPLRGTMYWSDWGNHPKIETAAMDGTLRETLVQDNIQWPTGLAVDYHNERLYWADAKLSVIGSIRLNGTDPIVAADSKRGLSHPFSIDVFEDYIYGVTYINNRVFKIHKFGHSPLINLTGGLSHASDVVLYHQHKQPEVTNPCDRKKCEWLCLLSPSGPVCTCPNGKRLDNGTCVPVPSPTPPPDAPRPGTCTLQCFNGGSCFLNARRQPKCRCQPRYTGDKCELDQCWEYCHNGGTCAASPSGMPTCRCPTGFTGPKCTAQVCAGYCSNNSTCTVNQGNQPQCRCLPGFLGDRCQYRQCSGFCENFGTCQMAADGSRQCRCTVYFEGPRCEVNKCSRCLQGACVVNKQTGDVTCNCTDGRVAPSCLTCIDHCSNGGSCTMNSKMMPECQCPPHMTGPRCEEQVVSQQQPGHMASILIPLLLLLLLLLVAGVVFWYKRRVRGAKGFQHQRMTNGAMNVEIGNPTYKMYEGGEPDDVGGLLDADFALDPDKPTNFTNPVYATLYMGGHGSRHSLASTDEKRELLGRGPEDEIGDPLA

In general, T/C refers to the ratio of treated to control. For `CC(=O)O[C@H]1C(=O)[C@@]2(C)[C@H]([C@H](OC(=O)c3ccccc3)[C@]3(O)C[C@H](OC(=O)[C@H](O)[C@@H](NC(=O)c4ccccc4)c4ccccc4)C(C)=C1C3(C)C)[C@]1(OC(C)=O)CO[C@@H]1C[C@@H]2O` [Taxol], the “Residual survival % Mean” value is listed as 52.24% in [1]; 45.62% in data set [2]; 48.82% in [3]; 54.26% in [4]; 55.18% in data set [9]; 24.98% in [12] (NCI-H460). For the same compound, the “Residual survival % Mean” value with U-87 glioblastoma cells (U-87 MG) is listed as 40.35%. Besides, the IC50 turned out to be 62.9 nM in data set [1] (Homo sapiens, Table 3B); 17.6 nM in data set [2] (Homo sapiens); 7.2 nM in the data set on U-118 glioblastoma cells; 6.12 nM in [3] (Homo sapiens); 13.5 nM in [4] (Homo sapiens); 137 nM in data set [7]. For the same compound, the IC50 in [9] (Homo sapiens, SK-HEP1) is 8.84 nM; in [11], 17.2 nM; in data set [12] (NCI-H460, read-out: IC50, effect on cell proliferation), 9.3 nM; in data set [12] (NCI-H460, Table 3B, read-out: IC50 (nM) Mean), 6.61 nM; in data set [13] it was 3.6 nM; in the data set with U-87 glioblastoma cells (72 h, read-out: IC50, proliferation of glioblastoma cells (U-87)), approximately 10 nM. The IC50 with U-87 glioblastoma cells (read-out: IC50, effect on cell proliferation) was 9.5 nM; in the data set with U-87 glioblastoma cells (U-87 MG, Table 3B, read-out: IC50 (nM) Mean) it was 12.9 nM. In addition, the “AUC 0-4” value in data set [5] (Brain) is given as 0.07 μg/g of tissue; in [5] (Eye) it was 0.57 μg/g of tissue; in [5] (Heart), 2.5 μg/g of tissue; in [5] (Kidney) it was 8.0 μg/g of tissue; in data set [5] (Liver), 22 μg/g of tissue; in [5] (Lung), 1.1 μg/g of tissue. Also, the MTD in [6] was 8 mg/kg. For the same compound, the “P-gp substrate or not” value at P-gp (human MDR1) (MDCK-MDR1) is listed as “are P-gp substrates”. Besides, the Platelets in data set [8] (4-days post-treatment) is on record as 200 ×109 cells/L; in data set [8] (8-days post treatment) it was 340 ×109 cells/L; in data set [8] (Pre-treatment) it was 250 ×109 cells/L. Besides, the Reticulocytes was 0.011 ×1012 cells/L in [8] (4-days post-treatment), 0.11 ×1012 cells/L in data set [8] (8-days post treatment) and 0.031 ×1012 cells/L in data set [8] (Pre-treatment). Moreover, the “White Blood Cells” value in data set [8] (4-days post-treatment) is listed as 4.3 ×109 cells/L; in [8] (8-days post treatment) it was 8.7 ×109 cells/L; in data set [8] (Pre-treatment), 9.7 ×109 cells/L. In addition, the “Tumor growth Δ” value in data set [10] (Day 0 to Day 11) is on record as 371 ± 58 mm^3. Moreover, the T/C in [10] (Day 11) was found to be 62%. In [10] (baseline, equivalent of 10 mg/kg of Taxol), the “Tumor volume, Day 0” value is recorded as 112 ± 12 mm^3. Moreover, in data set [10] (equivalent of 10 mg/kg of Taxol, twice a week), the “Tumor volume, Day 11” value was 483 ± 63 mm^3. In addition, the “Effect on cell cycle” value in the data set on NCI-H460 cell-cycle is on record as “induce a blockade of NCI-H460 cell in G2/M phase”.
`CC[C@]1(O)C[C@@H]2CN(CCc3c([nH]c4ccccc34)[C@@](C(=O)OC)(c3cc4c(cc3OC)N(C)[C@H]3[C@@](O)(C(=O)OC)[C@H](OC(C)=O)[C@]5(CC)C=CCN6CC[C@]43[C@@H]65)C2)C1` [vinblastine]: on P-gp (human MDR1) (MDCK-MDR1), the “P-gp substrate or not” value is on record as “are P-gp substrates”.
Consider aprotinin, for which the “LRP-dependent accumulation of [125I]-RAP (MEF-1 minus PEA-13)” value on LRP (excess, 25 μM, FIG. 18) was “affect the LRP-dependent accumulation of [^125I]-RAP”. Also, at LRP (setting [16]), the “Uptake of [125I]-RAP in LRP-negative cells (PEA-13)” value is recorded as “almost unaffected” and the “Uptake of [125I]-RAP in LRP-positive cells (MEF-1)” value is “inhibited the transport of [^125I]-RAP in positive LRP cells in a dose-dependent manner”. Also, the “Initial brain uptake (transport rate) compared with transferrin” value in data set [14] is “highest initial transport rate than transferrin”.
As for `C[C@@H](O)[C@H](N)C(=O)N[C@@H](Cc1ccccc1)C(=O)N[C@@H](Cc1ccccc1)C(=O)N[C@@H](Cc1ccc(O)cc1)C(=O)NCC(=O)NCC(=O)N[C@@H](CO)C(=O)N[C@@H](CCCNC(=N)N)C(=O)NCC(=O)N[C@@H](CCCCN)C(=O)N[C@@H](CCCNC(=N)N)C(=O)N[C@@H](CC(N)=O)C(=O)N[C@@H](CC(N)=O)C(=O)N[C@@H](Cc1ccccc1)C(=O)N[C@@H](CCCCN)C(=O)N[C@H](C(=O)N[C@@H](CCC(=O)O)C(=O)N[C@@H](CCC(=O)O)C(=O)N[C@@H](Cc1ccc(O)cc1)C(=O)O)[C@@H](C)O` [Angiopep-2], the “Accumulation into brain parenchyma compared with vascular marker [14C]-inulin” value in data set [15] is recorded as “higher than that of the vascular marker”.
For the compound rhodamine, the “Increase in accumulation in the presence of CsA, x-fold of control without CsA” value on P-gp (human MDR1) (MDCK-MDR1, 1 hr 37° C., 10 μM cyclosporin A) came to 7.5 fold. Besides, at P-gp (human MDR1) (MDCK-MDR1, with or without CsA), the “P-gp substrate or not” value is listed as “are P-gp substrates”.

The values are drawn from patent US8969310B2, “Potentiation of anticancer agents” (Angiochem Inc., priority 2005, dated 2015).
